Where two headings read alike, the source gives them in different places.
How the values were obtained:
[1] = system: heparinized whole blood; conditions: for ability to preserve specimen glucose (in words): 10 mmol/L, 8 hours; for Decrease (glucose loss) / Glucose at 8 hours / Glucose at 0 Hours: agent at 10 mmol/L; for Decrease (glucose loss): 0 to 8 hours, no additions 41%; for Glucose at 8 hours: 8 hours at room temperature; for Glucose at 8 hours / Glucose at 0 Hours: mean(SD); for IC50: read-out: concentration that reduced glycolytic loss by half, 8 hours incubation at room temperature
Description: Whole blood specimens collected in tubes containing sodium heparin as anticoagulant were obtained from healthy adult volunteers or from adult diabetic patients visiting an outpatient clinic, after obtaining informed consent. Specimens were employed for experimentation within one hour of collection. In a few experiments, whole blood heparinized specimens arriving at the clinical laboratory for analysis for glucose and other common analytes were mixed, and aliquots removed for experimental purposes. These studies were conducted in accordance with a protocol approved by the Human Studies Committee of Washington University.
Aliquots of heparinized whole blood (0.96 mL) were pipetted into microfuge tubes containing 0.040 mL of saline or anti-glycolytic agent in saline. Anti-glycolytic agents were prepared as 250 mmol/L stock solutions within one hour of use. At various times plasma was prepared from incubations by centrifugation at 8000×G for two minutes; plasma was decanted to 12×75 mm tubes and stored frozen until analysis. All incubations of whole blood were conducted at room temperature (23°) on a rotating table shaker, which kept the cells in dispersed suspension. d,1-glyceraldehyde, methylgloxal, d-glyceraldehyde, glycolaldehyde and dihydroxyacetone were obtained from Sigma Chem Co. (St. Louis, Mo.). 1-glyceraldehyde was obtained from Fisher Scientific (Pittsburgh, Pa.).
Glucose analyses were routinely performed on a Cobas-MIRA analyzer (Roche Diagnostic Systems, Montclair, N.J.), employing reagents based on glucose oxidase, manufactured by Sigma Diagnostics (St. Louis, Mo.). In some experiments, glucose and many other common laboratory analyses were performed on a Vitros 250 Analyzer (Ortho-Clinical Diagnostics, Rochester, N.Y.), a Hitachi 747 Analyzer (Boehringer-Mannheim Corp., Indianapolis, Ind.) and a RxL Analyzer (Dade Behring, Inc. Newark, Del.).
Whole heparinized blood was incubated for 0-8 hours in the presence of 10 mmol/L d,1-GA, and the glycolytic loss of glucose followed over time (FIG. 1).
Whole heparinized blood was incubated for 8 hours in the presence of 0-10 mmol/L d,1-GA (FIG. 2).
Several compounds related biochemically or structurally to d,1-GA were tested for ability to preserve specimen glucose; incubations without inhibitor and with d,1-GA were included for comparison (Table I). All compounds were tested at a final concentration of 10 mmol/L, and incubations were conducted at 0 hours and 8 hours for each compound. […] To test this possibility, an experiment varying the concentration of 1-GA was performed in analogy with the earlier experiment varying the d,1-GA concentration (see above).

[2] = system: erythrocyte potassium homeostasis; assay: Effect on erythrocyte potassium homeostasis (plasma potassium in whole blood incubations); format: cell-based, human; conditions: 10 mmol/L d,1-GA; room temperature; 4.0±0 mmol/L at 0 hours
Procedure: 1-glyceraldehyde was obtained from Fisher Scientific (Pittsburgh, Pa.).
The time course of potassium concentration changes was followed for 8 hours in whole blood incubations under three conditions; 1) incubation at room temperature (without additions), 2) incubation at room temperature with 10 mmol/L d,1-GA, and 3) incubation at 4° C. (without additions). In room temperature incubations without additive, potassium decreased modestly from 4.0±0 mmol/L at 0 hours to 3.5±0.1 mmol/L at 8 hours. Incubation for 8 hours in the presence of d,1-GA caused an increase of similar magnitude (to 4.5±0 mmol/L). In contrast, incubation at 4° C., which has been advocated as an effective way to prevent glucose loss for short periods (Lin et al., Clin. Chem., 22:2031-3 (1976)), caused an increase to 6.0±0.1 mmol/L.

[3] = system: patient whole blood specimens; assay: Efficacy of d,1-GA in patient specimens: initial glucose vs glucose after 8 hours incubation; format: cell-based, human; conditions: 10 mmol/L d,1-GA
Description: Results are presented by plotting initial glucose concentration against glucose concentrations either in the presence or absence of d,1-GA (FIG. 3).

| Structure (SMILES) | ability to preserve specimen glucose (in words) [1] | Decrease (glucose loss) [1] | Glucose at 8 hours [1] | Glucose at 0 Hours [1] | plasma potassium at 8 hours [2] | residual glucose at 8 hours ([1]; 5 mmol/L d,1-GA, start 4.8±0.1 mmol/L, FIG. 2) | loss of glucose at 8 hours ([1]; 10 mmol/L d,1-GA, FIG. 1, without additive 38% lost) | IC50 [1] | hemolysis ([1]; whole blood incubation with additive) | reduction of the extent of glucose loss compared with absence of d,1-GA [3] | hemolysis [1] | elimination of glycolytic loss (in words) ([1]; 2.5 mmol/L 1-GA, 8 hour incubation, data not shown) |
| --- | --- | --- | --- | --- | --- | --- | --- | --- | --- | --- | --- | --- |
| O=C[C@H](O)CO [d-GA, d-glyceraldehyde] | only partly effective | 17% | 3.9(0.1) mmol/L | 4.7(0.1) mmol/L |  |  |  |  |  |  |  |  |
| O=CC(O)CO (stereo not shown) [d,1-GA, d,1-glyceraldehyde] |  | 0% | 4.8(0.1) mmol/L | 4.7(0.2) mmol/L | 4.5 ± 0 mmol/L | 4.6 ± 0.3 mmol/L | 2% | ~900 µM | did not promote visible hemolysis | more than 7 fold |  |  |
| CC(=O)C=O [Methylglyoxal, reference compound] | ineffective | 43% | 2.6(0.2) mmol/L | 4.5(1.0) mmol/L |  |  |  |  |  |  |  |  |
| O=C(O)C(O)CO (stereo not shown) [Glyceric Acid, reference compound] |  | 42% | 2.7(0.2) mmol/L | 4.7(0.1) mmol/L |  |  |  |  |  |  |  |  |
| O=C(CO)[C@@H](O)[C@H](O)[C@@H](O)CO [L-Sorbose, reference compound] | not effective | 38% | 3.1(0) mmol/L | 5.0(0.1) mmol/L |  |  |  |  |  |  |  |  |
| O=CCO [Glycolaldehyde, reference compound] |  | 52% | 2.3(0.1) mmol/L | 4.8(0.1) mmol/L |  |  |  |  |  |  |  |  |
| O=C[C@@H](O)CO [1-GA, 1-glyceraldehyde] | completely prevented | 0% | 4.8(0.1) mmol/L | 4.8(0.1) mmol/L |  |  |  | ~650 µM |  |  | does not cause hemolysis | nearly completely effective |

Reference: patent publication US6632844B1, “Methods and compositions for preserving glucose level in blood specimens” (Washington University, priority 2000, dated 2003)
